Patent US20120220563A1, “Substituted piperidines” (BAYER PHARMA AKTIENGESELLSCHAFT, priority 2009, published 2012)

tested on: platelet aggregation in platelet-rich plasma triggered by thrombin receptor agonist (TRAP6, SFLLRN); experiment: Platelet aggregation in plasma (TRAP6/SFLLRN-triggered, turbidimetry according to Born); format: cell-based; settings: Homo sapiens, 10 min, platelet-rich plasma of healthy volunteers, 10 min at 37° C. with test substance, concentration which inhibits aggregation by 50%
Protocol: To determine the platelet aggregation, blood from healthy volunteers of both genders, who had not received any platelet aggregation-influencing medication for the last ten days, is used. The blood is taken up into monovettes (Sarstedt, Nümbrecht, Germany) which contain, as anticoagulant, sodium citrate 3.8% (1 part of citrate+9 parts of blood). To obtain platelet-rich plasma, the citrated whole blood is centrifuged at 140 g for 20 min
For the aggregation measurements, aliquots of the platelet-rich plasma with increasing concentrations of test substance are incubated at 37° C. for 10 min. Subsequently, aggregation is triggered by addition of a thrombin receptor agonist (TRAP6, SFLLRN) in an aggregometer and determined at 37° C. by means of the turbidimetry method according to Born (Born, G. V. R., Cross M. J., The Aggregation of Blood Platelets; J. Physiol. 1963, 168, 178-195). The SFLLRN concentration leading to maximum aggregation is, if appropriate, determined individually for each donor.
To calculate the inhibitory effect, the maximum increase of light transmission (amplitude of the aggregation curve in %) is determined within 5 minutes after addition of the agonist in the presence and absence of test substance, and the inhibition is calculated. The inhibition curves are used to calculate the concentration which inhibits aggregation by 50%.

Row | SMILES | IC50 [nM]
1 | CCOc1noc(C2CC(c3ccc(CC)c(F)c3)CN(C(=O)N3CCS(=O)(=O)CC3)C2)n1 (racemic) [Example 101, (1,1-Dioxidothiomorpholin-4-yl)[3-(3-ethoxy-1,2,4-oxadiazol-5-yl)-5-(4-ethyl-3-fluorophenyl)-piperidin-1-yl]methanone] | 0.3
2 | CCOc1noc(C2CC(c3ccc(CC(F)(F)F)cc3)CN(C(=O)N3CC[S+]([O-])CC3)C2)n1 (single isomer, unassigned) [Example 66, {3-(3-Ethoxy-1,2,4-oxadiazol-5-yl)-5-[4-(2,2,2-trifluoroethyl)phenyl]piperidin-1-yl}(1-oxidothio-morpholin-4-yl)methanone] | 0.54
3 | CCN(CC)c1noc(C2CC(c3ccc(C(F)(F)F)cc3)CN(C(=O)N3CCOCC3)C2)n1 (single isomer, unassigned) [Example 6, {3-[3-(Diethylamino)-1,2,4-oxadiazol-5-yl]-5-[4-(trifluoromethyl)phenyl]piperidin-1-yl}-(morpholin-4-yl)methanone] | 0.67
4 | CCOc1noc(C2CC(c3ccc(CC(F)(F)F)cc3)CN(C(=O)N3CCS(=O)(=O)CC3)C2)n1 (single isomer, unassigned) [Example 69, (1,1-Dioxidothiomorpholin-4-yl) {3-(3-ethoxy-1,2,4-oxadiazol-5-yl)-5-[4-(2,2,2-trifluoroethyl)-phenyl]piperidin-1-yl}methanone] | 0.25
5 | CCc1ccc(C2CC(c3nc(OCCOC)no3)CN(C(=O)N3CCS(=O)(=O)CC3)C2)cc1 (single isomer, unassigned) [Example 63, (1,1-Dioxidothiomorpholin-4-yl){3-(4-ethylphenyl)-5-[3-(2-methoxyethoxy)-1,2,4-oxadiazol-5-yl]-piperidin-1-yl}-methanone] | 0.24
